Measurements from patent US20020068367A1, “Linker and method for solid phase combinatorial synthesis” (priority 2000, published 2002).
Several values for one entry are separate records, joined by “and”; a condition that tells them apart may be missing. Equal entries are not always repeated.

Target: T1, fluorescein-streptavidin (Streptomyces avidinii, UniProt P22629)
T1 construct: purchased Calbiochem-Novabiochem Corp., La Jolla, Calif; 189734
Assay: Standard protein-binding assay: fluorescein-streptavidin binding to linker on streptavidin-coated 96-well plates
Excerpt: Referring to the drawings, and particularly to FIG. 1, generic reactions illustrating two variations of the screening system of the present invention are shown. FIGS. 1a-1d illustrate the generic System 1 reaction wherein a compound comprised of a tether connecting biotin with a chemical compound containing a nitrophenyl group is applied to a streptavidin coated solid phase. The amount of fluorescein-protein complex (c), where the exemplary protein is fluorescein-anti-DNP antibody, bound to the biotin-tether-nitrophenyl complex is characterized by detecting the magnitude of fluorescence emission in each individual well at the completion of the reaction. Similarly, FIG. 1e-1h illustrates the generic System 2 reaction wherein a tether connects 2 biotin groups together and streptavidin is coated on the solid phase. As in the System 1 reaction, the amount of fluorescein-protein complex (g), where the exemplary protein is fluorescein-streptavidin, bound to the biotin-tether-biotin complex is characterized through the detection of fluorescence emissions in each individual well at the completion of the reaction.
In the quantification of the interaction between fluoresceinated-proteins and linkers is characterized by detecting the magnitude of fluorescence emissions in each individual well at the completion of standard protein-binding assay procedures.
A standard protein-binding assay comprises a multi-step process in which strepeavidin pre-treated 96-well plates are exposed to a solution containing linker followed by exposure to a solution containing fluorescein-labeled protein. The 96-well plates are coated with a commercially available streptavidin solution (cat #BPS00100; Xenopore Corp., Hawthorne, N.J.) and then pre-incubated with 300 μl PBS buffer for 10 minutes at room temperature. To complete the pre-incubation process, the PBS buffer is discarded and the plates are further washed five times with water. Once the plate is sufficiently washed, add to the wells 100 μl of pre-mixed binding buffer containing the desired linker, the preparation of which is as described above. After addition of the linker solution, the plate is incubated at 37° C. for one hour. Upon completion of incubation, the linker solution is discarded and the plate is washed with five changes of water. For the fifth step of the assay process, 100 μl of a premixed reaction solution containing 1 M Tris, 0.5 M NaCl and the fluorescein-labeled proteins are added to selected wells of the plate with bound linker. The fluorescein conjugated proteins, anti-dinitrophenyl antibody (rabbit IgG fraction, cat #A-6423) (anti-DNP) and streptavidin (cat #189734) are commercially available from Molecular Probes, Inc., Eugene, Oreg. and Calbiochem Inc., San Diego, Calif. Upon addition of the protein solutions, the plate is further incubated at 37° C. for one hour. Following the incubation period, the reacting solution in each well is discarded and the wells are washed with five changes of 1 M Tris or 30 changes of water. After this final washing step, 250 μl of elution buffer containing 0.5 mM NaOH, methanol and 20 mM EDTA is added to each well and the plate is read using a Spectra MAX Gemini fluorescein plate reader (Molecular Devices Corp., Sunnyvale, Calif.).
Using the standard protein-binding assay described above, linkers 1-7 are evaluated for their ability to bind fluorescein-streptavidin or fluorescein-anti-DNP. The detection of fluorescence emission beyond that of the control would indicate that the fluorescein labeled protein has bound to the corresponding linker. Lack of fluorescence emission would indicate that either the linker or the fluorescein-bound proteins are absent, or that an improper linker was used. This may be interpreted as meaning that the protein of interest, in this exemplary example streptavidin or anti-DNP, “recognizes” the particular library compound being used in the experiment. […]

[1] = Table 5, linker 3 50 nmol, streptavidin-fluorescein 100 pmol
[2] = [Linker] 3 2.5 nmol, fluorescein-streptavidin 100 pmol
[3] = [Linker] 3 5.0 nmol, fluorescein-streptavidin 100 pmol
[4] = [Linker] 3 25.0 nmol, fluorescein-streptavidin 100 pmol
[5] = [Linker] 3 50.0 nmol, fluorescein-streptavidin 100 pmol
[6] = [Linker] 3 250.0 nmol, fluorescein-streptavidin 100 pmol
[7] = [Linker] 3 500.0 nmol, fluorescein-streptavidin 100 pmol
[8] = [Linker] 3 2500.0 nmol, fluorescein-streptavidin 100 pmol
[9] = [Linker] 3 5000.0 nmol, fluorescein-streptavidin 100 pmol
[10] = linker 3 50 nmol, [STREP] 0 pmol (linker only)
[11] = linker 3 50 nmol, [STREP] 0.15 pmol
[12] = linker 3 50 nmol, [STREP] 0.3 pmol
[13] = linker 3 50 nmol, [STREP] 1.0 pmol
[14] = linker 3 50 nmol, [STREP] 3.0 pmol
[15] = linker 3 50 nmol, [STREP] 15.0 pmol
[16] = linker 3 50 nmol, [STREP] 30.0 pmol
[17] = linker 3 50 nmol, [STREP] 45.0 pmol
[18] = linker 3 50 nmol, [STREP] 60.0 pmol

T1 sequence (P22629 25-183): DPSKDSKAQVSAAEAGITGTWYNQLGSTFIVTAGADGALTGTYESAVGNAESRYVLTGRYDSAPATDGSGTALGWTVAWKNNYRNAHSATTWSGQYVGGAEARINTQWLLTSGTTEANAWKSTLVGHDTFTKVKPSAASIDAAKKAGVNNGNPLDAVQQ

SMILES: O=C(CCCCCNC(=O)CCCCCNC(=O)CCCCC1SCC2NC(=O)NC21)NCCCCCNC(=O)CCCCCNC(=O)CCCCC1SCC2NC(=O)NC21 (stereo not drawn) [Linker 3]
- Increase in fluorescence emission (100-fold increase in linker 3 concentration (0.5 nmol to 50 nmol)): no significant increase
- Increase in fluorescence emission (100-fold increase in linker concentration at much higher concentrations of linker 3): 2 fold
- Fluorescence emission, mean of Columns 1-3 [1]: 479.29
- Fluorescence emission, sum of Columns 1-2 [1]: 987.05
- Fluorescence emission, sum of Columns 1-3 [1]: 1437.9
- Fluorescence emission (Table 5, linker 3 50 nmol, streptavidin-fluorescein 100 pmol, replicates): 492.22 and 494.83 and 450.81
- Detected fluorescence emission (Well #1, linker 3 50 nmol, streptavidin-fluorescein 100 pmol): about 500
- Fluorescence emission, mean of Columns 1-3 [2]: 181.30
- Fluorescence emission, sum of Columns 1-2 [2]: 406.14
- Fluorescence emission, sum of Columns 1-3 [2]: 543.91
- Fluorescence emission ([Linker] 3 2.5 nmol, fluorescein-streptavidin 100 pmol, replicates): 230.68 and 175.46 and 137.77
- Fluorescence emission, mean of Columns 1-3 [3]: 193.80
- Fluorescence emission, sum of Columns 1-2 [3]: 467.1
- Fluorescence emission, sum of Columns 1-3 [3]: 581.41
- Fluorescence emission ([Linker] 3 5.0 nmol, fluorescein-streptavidin 100 pmol, replicates): 239.14 and 227.96 and 114.31
- Fluorescence emission, mean of Columns 1-3 [4]: 211.91
- Fluorescence emission, sum of Columns 1-2 [4]: 469.52
- Fluorescence emission, sum of Columns 1-3 [4]: 635.73
- Fluorescence emission ([Linker] 3 25.0 nmol, fluorescein-streptavidin 100 pmol, replicates): 223.84 and 245.68 and 166.21
- Fluorescence emission, mean of Columns 1-3 [5]: 280.99
- Fluorescence emission, sum of Columns 1-2 [5]: 502.51
- Fluorescence emission, sum of Columns 1-3 [5]: 782.96
- Fluorescence emission ([Linker] 3 50.0 nmol, fluorescein-streptavidin 100 pmol, replicates): 226.70 and 275.81 and 280.45
- Fluorescence emission, mean of Columns 1-3 [6]: 313.49
- Fluorescence emission, sum of Columns 1-2 [6]: 597.65
- Fluorescence emission, sum of Columns 1-3 [6]: 940.47
- Fluorescence emission ([Linker] 3 250.0 nmol, fluorescein-streptavidin 100 pmol, replicates): 261.21 and 336.44 and 342.82
- Fluorescence emission, mean of Columns 1-3 [7]: 352.86
- Fluorescence emission, sum of Columns 1-2 [7]: 703.68
- Fluorescence emission, sum of Columns 1-3 [7]: 1058.6
- Fluorescence emission ([Linker] 3 500.0 nmol, fluorescein-streptavidin 100 pmol, replicates): 325.94 and 377.74 and 354.91
- Fluorescence emission, mean of Columns 1-3 [8]: 457.81
- Fluorescence emission, sum of Columns 1-2 [8]: 920.68
- Fluorescence emission, sum of Columns 1-3 [8]: 1373.4
- Fluorescence emission ([Linker] 3 2500.0 nmol, fluorescein-streptavidin 100 pmol, replicates): 474.19 and 446.49 and 452.76
- Fluorescence emission, mean of Columns 1-3 [9]: 440.22
- Fluorescence emission, sum of Columns 1-2 [9]: 883.57
- Fluorescence emission, sum of Columns 1-3 [9]: 1320.7
- Fluorescence emission ([Linker] 3 5000.0 nmol, fluorescein-streptavidin 100 pmol, replicates): 447.77 and 435.80 and 437.09
- Effect on binding capacity of fluorescein-streptavidin (generic System 2): significantly enhances the binding capacity
- Fluorescence emission (linker 3 0.5 nmol, fluorescein-streptavidin 100 pmol): 239.14
- Fluorescence emission, mean of Columns 1-3 [10]: 150.00 and 142.49
- Fluorescence emission, sum of Columns 1-2 [10]: 311.12 and 280.3
- Fluorescence emission, sum of Columns 1-3 [10]: 450.01 and 427.46
- Fluorescence emission (linker 3 50 nmol, [STREP] 0 pmol (linker only), replicates): 158.28 and 152.84 and 138.89 and 156.28 and 124.02 and 147.16
- Fluorescence emission, mean of Columns 1-3 [11]: 147.68
- Fluorescence emission, sum of Columns 1-2 [11]: 276.44
- Fluorescence emission, sum of Columns 1-3 [11]: 443.03
- Fluorescence emission (linker 3 50 nmol, [STREP] 0.15 pmol, replicates): 110.75 and 110.57 and 165.87 and 166.59
- Fluorescence emission, mean of Columns 1-3 [12]: 129.73
- Fluorescence emission, sum of Columns 1-2 [12]: 226.97
- Fluorescence emission, sum of Columns 1-3 [12]: 389.19
- Fluorescence emission (linker 3 50 nmol, [STREP] 0.3 pmol, replicates): 72.275 and 154.69 and 162.22
- Fluorescence emission, mean of Columns 1-3 [13]: 197.16
- Fluorescence emission, sum of Columns 1-2 [13]: 389.28
- Fluorescence emission, sum of Columns 1-3 [13]: 591.47
- Fluorescence emission (linker 3 50 nmol, [STREP] 1.0 pmol, replicates): 167.36 and 221.92 and 202.19
- Fluorescence emission, mean of Columns 1-3 [14]: 253.59
- Fluorescence emission, sum of Columns 1-2 [14]: 542.04
- Fluorescence emission, sum of Columns 1-3 [14]: 760.78
- Fluorescence emission (linker 3 50 nmol, [STREP] 3.0 pmol, replicates): 237.61 and 304.43 and 218.74
- Fluorescence emission, mean of Columns 1-3 [15]: 257.02
- Fluorescence emission, sum of Columns 1-2 [15]: 482.28
- Fluorescence emission, sum of Columns 1-3 [15]: 771.07
- Fluorescence emission (linker 3 50 nmol, [STREP] 15.0 pmol, replicates): 220.15 and 262.13 and 288.79
- Fluorescence emission, mean of Columns 1-3 [16]: 326.19
- Fluorescence emission, sum of Columns 1-2 [16]: 601.80
- Fluorescence emission, sum of Columns 1-3 [16]: 978.58
- Fluorescence emission (linker 3 50 nmol, [STREP] 30.0 pmol, replicates): 395.67 and 206.13 and 376.78
- Fluorescence emission, mean of Columns 1-3 [17]: 474.38
- Fluorescence emission, sum of Columns 1-2 [17]: 994.49
- Fluorescence emission, sum of Columns 1-3 [17]: 1423.2
- Fluorescence emission (linker 3 50 nmol, [STREP] 45.0 pmol, replicates): 454.46 and 540.03 and 428.66
- Fluorescence emission, mean of Columns 1-3 [18]: 463.43
- Fluorescence emission, sum of Columns 1-2 [18]: 959.13
- Fluorescence emission, sum of Columns 1-3 [18]: 1390.3
- Fluorescence emission (linker 3 50 nmol, [STREP] 60.0 pmol, replicates): 548.75 and 410.38 and 431.15
- Increase in fluorescence emission (linker 3, 100-fold increase in fluorescein-streptavidin concentration (0.15 to 15 pm)): 2 fold
